From PubChem BioAssay AID743153 (The Scripps Research Institute Molecular Screening Center, 2013)
The source made the active and inactive calls. How the calls were made is not given here.

Target: methionyl-tRNA synthetase (Trypanosoma brucei brucei)
Test: inhibition of trypanosomal methionyl-tRNA synthetase – biochemical, luminescence, dose response, round 1, late-stage follow-up (AID 743153)
Settings: recombinant T. brucei MetRS, luminescence (ATP depletion)

Question: For `CCC(=O)c1cn(CC(=O)Nc2cccc(C(F)(F)F)c2)c2ccccc12`, which IC50 is on record?
Answer: The IC50 was > 39.5 µM (inactive).

Question: Which IC50 does the source give for `Cc1ccc(C(=O)NCCc2nc3ccccc3[nH]2)cc1[N+](=O)[O-]` here?
Answer: Its IC50 is 2.37 µM.

Question: How did the IC50 turn out when `O=C(Nc1ccc(F)c(Cl)c1)C1CC(=O)n2c(nc3ccccc32)N1` (stereo unspecified) was run?
Answer: The IC50 was 1.18 µM.

Question: How did the IC50 turn out when `CCN(C(=O)Cn1cc(C(=O)C(=O)N2CCOCC2)c2ccccc21)c1ccccc1` was run?
Answer: Its IC50 is > 119 µM (inactive).

Question: For `O=C1CC(NCCc2ccccc2)C(=O)N1c1ccc(Br)cc1` (stereo unspecified), which IC50 is on record?
Answer: The IC50 was > 119 µM (inactive).

Question: Which IC50 does the source give for `CCCCn1c(CCNC(=O)c2ccc(F)cc2)nc2ccccc21` here?
Answer: Its IC50 is > 39.5 µM (inactive).

Question: Which IC50 does the source give for `CC(C)c1nc2ccc(C(=O)N(C)CCc3nc4ccc(F)cc4[nH]3)cc2o1` here?
Answer: Its IC50 is > 119 µM (inactive).

Question: `Cc1ccc2[nH]c3nc(SCC(=O)Nc4ccc(C(F)(F)F)cc4)nnc3c2c1` was tested. Which IC50 did it give?
Answer: The IC50 was > 119 µM (inactive).

Question: Which IC50 does the source give for `CCN(CC)C(=O)C(=O)c1cn(CC(=O)Nc2ccccc2OC)c2ccccc12` here?
Answer: The IC50 was > 119 µM (inactive).

Question: Which IC50 does the source give for `O=C(NCCc1nc2ccccc2[nH]1)c1ccc(Cl)cc1Cl` here?
Answer: The IC50 was 0.905 µM.

Question: With `Cc1cccc(C(=O)NCCc2nc3ccccc3n2CCOc2ccccc2)c1` as the compound, how does the IC50 read?
Answer: The IC50 was > 39.5 µM (inactive).

Question: `O=C(Cn1cc(C(=O)C(=O)N2CCCC2)c2ccccc21)Nc1ccccc1` was tested. Which IC50 did it give?
Answer: Its IC50 is > 119 µM (inactive).

Question: Which IC50 does the source give for `CCN(CC)C(=O)C(=O)c1cn(CC(=O)N2CCCc3ccccc32)c2ccccc12` here?
Answer: The IC50 was > 119 µM (inactive).

Question: For `O=C(Cn1cc(C(=O)C(=O)N2CCOCC2)c2ccccc21)NCc1ccccc1`, which IC50 is on record?
Answer: Its IC50 is > 119 µM (inactive).

Question: How did the IC50 turn out when `COCCc1nc2ccc(C(=O)NCCc3nc4ccc(OC)cc4[nH]3)cc2o1` was run?
Answer: The IC50 was > 39.5 µM (inactive).

Question: How did the IC50 turn out when `CCN(CC)C(=O)C(=O)c1cn(CC(=O)N(CC)c2ccccc2)c2ccccc12` was run?
Answer: Its IC50 is > 39.5 µM (inactive).

Question: `CCN(CCc1nc2ccc(C)cc2[nH]1)C(=O)c1ccc2ncccc2c1` was tested. Which IC50 did it give?
Answer: The IC50 was > 119 µM (inactive).

Question: `CC1Cc2ccccc2N1C(=O)Cn1cc(C(=O)C(=O)N2CCOCC2)c2ccccc21` (stereo unspecified) was tested. Which IC50 did it give?
Answer: The IC50 was > 119 µM (inactive).

Question: For `COc1ccccc1NC(=O)CSc1nnc2c(n1)[nH]c1ccc(C)cc12`, which IC50 is on record?
Answer: The IC50 was “inactive”.

Question: Which IC50 does the source give for `CCc1ccc2c(c1)c1nnc(SCC(=O)Nc3ccc4c(c3)OCO4)nc1n2C` here?
Answer: The IC50 was > 119 µM (inactive).

Question: How did the IC50 turn out when `Cc1cc2cc(C(=O)N3CCCC(c4nc5ccccc5[nH]4)C3)ccc2o1` (stereo unspecified) was run?
Answer: Its IC50 is > 39.5 µM (inactive).

Question: `CCN(CC)C(=O)C(=O)c1cn(CC(=O)Nc2cccc(C(F)(F)F)c2)c2ccccc12` was tested. Which IC50 did it give?
Answer: Its IC50 is 0.11 µM.

Question: `CNC(=S)N(CCc1ccccc1)C1CC(=O)N(c2ccc(Br)cc2)C1=O` (stereo unspecified) was tested. Which IC50 did it give?
Answer: Its IC50 is 0.192 µM.

Question: How did the IC50 turn out when `O=C(Cn1cc(C(=O)C(=O)N2CCOCC2)c2ccccc21)NCC1CCCO1` (stereo unspecified) was run?
Answer: The IC50 was > 119 µM (inactive).

Question: How did the IC50 turn out when `CC(=O)N(CCc1ccccc1)C1CC(=O)N(c2ccc(Cl)cc2)C1=O` (stereo unspecified) was run?
Answer: The IC50 was > 39.5 µM (inactive).

Question: Which IC50 does the source give for `O=C(NCCc1nc2ccccc2[nH]1)c1c(F)cccc1F` here?
Answer: The IC50 was > 119 µM (inactive).

Question: Which IC50 does the source give for `COc1ccccc1NC(=O)Cn1cc(C(=O)C(=O)N2CCOCC2)c2ccccc21` here?
Answer: The IC50 was > 119 µM (inactive).

Question: For `COc1cccc(NC(=O)C2CC(=O)n3c(nc4ccccc43)N2)c1` (stereo unspecified), which IC50 is on record?
Answer: The IC50 was “inactive”.

Question: `O=C(CSC1CC(=O)N(c2cccc(Cl)c2)C1=O)Nc1ccc(Br)cc1` (stereo unspecified) was tested. Which IC50 did it give?
Answer: Its IC50 is “inactive”.

Question: `Cc1cccc2[nH]c(CCN(C)C(=O)c3cccc(C4CCNC4)c3)nc12` (stereo unspecified) was tested. Which IC50 did it give?
Answer: The IC50 was > 119 µM (inactive).

Question: For `COc1ccc(NC(=O)CSc2nnc3c4cc(C)ccc4n(C)c3n2)cc1`, which IC50 is on record?
Answer: Its IC50 is > 119 µM (inactive).

Question: How did the IC50 turn out when `COc1ccc(CCN(C(=S)Nc2ccccc2)C2CC(=O)N(c3ccc(Cl)cc3)C2=O)cc1` (stereo unspecified) was run?
Answer: The IC50 was 0.321 µM.

Question: For `O=C(NCCc1nc2ccccc2[nH]1)c1ccc(Cl)cc1`, which IC50 is on record?
Answer: The IC50 was 4.86 µM.

Question: For `O=C(CSc1nnc2c(n1)[nH]c1ccc(Br)cc12)NCc1ccccc1`, which IC50 is on record?
Answer: The IC50 was 0.626 µM.

Question: How did the IC50 turn out when `Cn1c(CCNC(=O)c2ccc(Cl)cc2)nc2ccccc21` was run?
Answer: Its IC50 is > 39.5 µM (inactive).

Question: Which IC50 does the source give for `O=C(Cn1cc(C(=O)C2CC2)c2ccccc21)Nc1cccc(C(F)(F)F)c1` here?
Answer: Its IC50 is “inactive”.

Question: With `O=C(Cn1cc(C(=O)c2ccco2)c2ccccc21)Nc1cccc(C(F)(F)F)c1` as the compound, how does the IC50 read?
Answer: The IC50 was 1.39 µM.

Question: `COc1ccc(NC(=O)C2CC(=O)n3c(nc4ccccc43)N2)cc1` (stereo unspecified) was tested. Which IC50 did it give?
Answer: Its IC50 is > 119 µM (inactive).

Question: With `O=C(NCCc1nc2ccccc2[nH]1)c1ccc(Cl)c(Cl)c1` as the compound, how does the IC50 read?
Answer: Its IC50 is 0.609 µM.

Question: `CCN(CC)C(=O)C(=O)c1cn(CC(=O)Nc2cccc(OC)c2)c2ccccc12` was tested. Which IC50 did it give?
Answer: The IC50 was 1.84 µM.

Question: Which IC50 does the source give for `Cc1cccc2[nH]c(C3CCCN(C(=O)c4cccc5cccnc45)C3)nc12` (stereo unspecified) here?
Answer: Its IC50 is > 39.5 µM (inactive).

Question: For `COc1ccc(CCN(C(=O)c2cccc(F)c2)C2CC(=O)N(c3ccc(Br)cc3)C2=O)cc1` (stereo unspecified), which IC50 is on record?
Answer: Its IC50 is > 119 µM (inactive).

Question: With `O=C(Cn1cc(C(=O)COc2ccccc2)c2ccccc21)Nc1cccc(C(F)(F)F)c1` as the compound, how does the IC50 read?
Answer: Its IC50 is > 39.5 µM (inactive).

Question: Which IC50 does the source give for `CC(=O)c1cn(CC(=O)Nc2cccc(C(F)(F)F)c2)c2ccccc12` here?
Answer: Its IC50 is 6.2 µM.

Question: `Cc1ccc(C(=O)NCCc2nc3ccccc3[nH]2)cc1C` was tested. Which IC50 did it give?
Answer: Its IC50 is > 13.2 µM (inactive).

Question: `CCc1ccc2[nH]c3nc(SCC(=O)NCc4cccc(OC)c4)nnc3c2c1` was tested. Which IC50 did it give?
Answer: Its IC50 is > 39.5 µM (inactive).

Question: `CC(=O)N(CCc1ccccc1)C1CC(=O)N(c2ccc(Br)cc2)C1=O` (stereo unspecified) was tested. Which IC50 did it give?
Answer: Its IC50 is > 39.5 µM (inactive).

Question: With `Cc1ccc(CNC(=O)CSc2nnc3c(n2)[nH]c2ccc(C)cc23)cc1` as the compound, how does the IC50 read?
Answer: The IC50 was “inactive”.

Question: `O=C(Cn1cc(C(=O)c2ccccc2)c2ccccc21)Nc1cccc(C(F)(F)F)c1` was tested. Which IC50 did it give?
Answer: Its IC50 is 6.8 µM.

Question: Which IC50 does the source give for `Cc1cccc(NC(=O)C2CC(=O)n3c(nc4ccccc43)N2)c1` (stereo unspecified) here?
Answer: The IC50 was > 39.5 µM (inactive).

Question: Which IC50 does the source give for `O=C(C(=O)N1CCOCC1)c1cn(CC(=O)N2CCCc3ccccc32)c2ccccc12` here?
Answer: The IC50 was > 13.2 µM (inactive).
